What was measured:
LOLRI = experiment: Post-emergence herbicidal effect, greenhouse pot test; type: in vivo, Lolium rigidum; conditions: 320 g/ha
Procedure, shortened: (§1)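 Greenhouse pot plants in sandy loam receive a one-leaf-stage spray at 20 to 320 g/ha. Activity is assessed visually around 3 weeks afterwards on a 0–100% scale, where 100% means the plants have died.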

VERPE = experiment: as above; type: in vivo, Veronica persica
Procedure, shortened: as §1

VIOTR = experiment: as above; type: in vivo, Viola tricolor
Procedure, shortened: as §1

PHBPU = experiment: as above; type: in vivo, Ipomoea purpurea
Procedure, shortened: as §1

ECHCG = experiment: as above; type: in vivo, Echinochloa crus-galli
Procedure, shortened: as §1

ALOMY = experiment: as above; type: in vivo, Alopecurus myosuroides; conditions: 320 g/ha, visual rating about 3 weeks after treatment
Procedure, shortened: as §1

AVEFA = experiment: as above; type: in vivo, Avena fatua; conditions: 320 g/ha, visual rating about 3 weeks after treatment
Procedure, shortened: as §1

TRZAS = experiment: Post-emergence herbicidal effect and crop plant compatibility, greenhouse pot test; type: in vivo, Triticum aestivum; conditions: 20 g/ha, one-leaf stage, rated visually after about 3 weeks vs untreated controls
Procedure, shortened: (§2)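 Visual % activity scored roughly 3 weeks post-spray against untreated plants, where 100% means death and 0% equals control. Plants were treated at the one-leaf stage, 2 to 3 weeks after sowing in sandy loam, at 20 to 320 g/ha.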

AMARE = experiment: Post-emergence herbicidal effect, greenhouse pot test; type: in vivo, Amaranthus retroflexus; conditions: 320 g/ha, visual rating about 3 weeks after treatment
Procedure, shortened: as §1

DIGSA = experiment: as above; type: in vivo, Digitaria sanguinalis; conditions: 320 g/ha, visual rating about 3 weeks after treatment
Procedure, shortened: as §1

POLCO = experiment: as above; type: in vivo, Fallopia convolvulus
Procedure, shortened: as §1

MATIN = experiment: as above; type: in vivo, Tripleurospermum inodorum
Procedure, shortened: as §1

ZEAMX = experiment: Post-emergence herbicidal effect and crop plant compatibility, greenhouse pot test; type: in vivo, Zea mays; conditions: 20 g/ha, one-leaf stage, rated visually after about 3 weeks vs untreated controls
Procedure, shortened: as §2

ABUTH = experiment: Post-emergence herbicidal effect, greenhouse pot test; type: in vivo, Abutilon theophrasti; conditions: visual rating about 3 weeks after treatment
Procedure, shortened: as §1

KCHSC = experiment: as above; type: in vivo
Procedure, shortened: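 Visual rating of activity against untreated plants (100% = plants died, 0% = no effect), done about 3 weeks after treatment. Compounds applied at 20–320 g/ha as aqueous spray (600 l/ha, 0.5% additive) from WP or EC formulations onto one-leaf-stage plants grown in sandy loam under greenhouse conditions.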

SETVI = experiment: as above; type: in vivo, Setaria viridis
Procedure, shortened: as §1

`CCOC(Oc1nn(-c2ccccc2F)c(-c2ccc(F)nc2)c1Cl)C(=O)OCCC(=O)OC` (stereo not shown) [Example I-53] was tested, and the “Post-emergence effect against LOLRI in %” value (LOLRI) was 90%, the “Post-emergence effect against VERPE in %” value (VERPE; 80 g/ha) was 80% and the “Post-emergence effect against VERPE in %” value (VERPE; 320 g/ha) was 90%. The “Post-emergence effect against VIOTR in %” value (VIOTR; 80 g/ha) was 80%, the “Post-emergence effect against VIOTR in %” value (VIOTR; 320 g/ha) was 80% and the “Post-emergence effect against PHBPU in %” value (PHBPU; 80 g/ha) was 90%. The “Post-emergence effect against PHBPU in %” value (PHBPU; 320 g/ha) was 90%, the “Post-emergence effect against ECHCG in %” value (ECHCG; 80 g/ha) was 90% and the “Post-emergence effect against ECHCG in %” value (ECHCG; 320 g/ha) was 90%. For the same compound, the “Post-emergence effect against ALOMY” value (ALOMY) was 100%, the “Post-emergence effect against AVEFA” value (AVEFA) was 90% and the “Post-emergence effect at 20 g/ha against TRZAS in %” value (TRZAS) was 0%. The “Post-emergence effect against AMARE” value (AMARE) was 80%, the “Post-emergence effect against DIGSA” value (DIGSA) was 90% and the “Post-emergence effect against POLCO in %” value (POLCO; 80 g/ha) was 80%. The “Post-emergence effect against POLCO in %” value (POLCO; 320 g/ha) was 80%, the “Post-emergence effect against MATIN in %” value (MATIN; 320 g/ha) was 80% and the “Post-emergence effect at 20 g/ha against ZEAMX in %” value (ZEAMX) was 0%. For the same compound, the “Post-emergence effect against ABUTH” value (ABUTH; 320 g/ha) was 80%, the “Post-emergence effect against KCHSC in %” value (KCHSC; 320 g/ha) was 80% and the “Post-emergence effect against SETVI in %” value (SETVI; 320 g/ha) was 90%.

`COC(=O)C(OC)Oc1nn(-c2ccccc2F)c(-c2ccc(F)nc2)c1C1CC1` (stereo not shown) [Example I-71] showed a pest or weed control at 320 g/ha (LOLRI; Lolium rigidum, 504 h, read-out: Post-emergence effect against LOLRI in %) of 90%, a pest or weed control at 80 g/ha (VERPE; Veronica persica, 504 h, 80 g/ha, read-out: Post-emergence effect against VERPE in %) of 90% and a pest or weed control at 320 g/ha (VERPE; Veronica persica, 504 h, 320 g/ha, read-out: Post-emergence effect against VERPE in %) of 90%. The pest or weed control at 20 g/ha (VIOTR; Viola tricolor, 504 h, 20 g/ha, read-out: Post-emergence effect against VIOTR in %) was 90%, the pest or weed control at 80 g/ha (VIOTR; Viola tricolor, 504 h, 80 g/ha, read-out: Post-emergence effect against VIOTR in %) was 90% and the pest or weed control at 320 g/ha (VIOTR; Viola tricolor, 504 h, 320 g/ha, read-out: Post-emergence effect against VIOTR in %) was 90%. The pest or weed control at 20 g/ha (PHBPU; Ipomoea purpurea, 504 h, 20 g/ha, read-out: Post-emergence effect against PHBPU in %) was 80%, the pest or weed control at 80 g/ha (PHBPU; Ipomoea purpurea, 504 h, 80 g/ha, read-out: Post-emergence effect against PHBPU in %) was 90% and the pest or weed control at 320 g/ha (PHBPU; Ipomoea purpurea, 504 h, 320 g/ha, read-out: Post-emergence effect against PHBPU in %) was 90%. It also gave a pest or weed control at 20 g/ha (ECHCG; Echinochloa crus-galli, 504 h, 20 g/ha, visual rating about 3 weeks after treatment, read-out: Post-emergence effect against ECHCG) of 90%, a pest or weed control at 80 g/ha (ECHCG; Echinochloa crus-galli, 504 h, 80 g/ha, read-out: Post-emergence effect against ECHCG in %) of 90% and a pest or weed control at 320 g/ha (ECHCG; Echinochloa crus-galli, 504 h, 320 g/ha, read-out: Post-emergence effect against ECHCG in %) of 90%. It also gave a pest or weed control at 320 g/ha (ALOMY; Alopecurus myosuroides, 504 h, read-out: Post-emergence effect against ALOMY) of 90%, a pest or weed control at 320 g/ha (AVEFA; Avena fatua, 504 h, read-out: Post-emergence effect against AVEFA) of 90% and a percent crop injury (phytotoxicity) to wheat, post-emergence at 20 g/ha (TRZAS; Triticum aestivum, 504 h, read-out: Post-emergence effect at 20 g/ha against TRZAS in %) of 20%. The pest or weed control at 320 g/ha (AMARE; Amaranthus retroflexus, 504 h, read-out: Post-emergence effect against AMARE) was 80%, the pest or weed control at 320 g/ha (DIGSA; Digitaria sanguinalis, 504 h, read-out: Post-emergence effect against DIGSA) was 90% and the pest or weed control at 80 g/ha (POLCO; Fallopia convolvulus, 504 h, 80 g/ha, read-out: Post-emergence effect against POLCO in %) was 80%. The pest or weed control at 320 g/ha (POLCO; Fallopia convolvulus, 504 h, 320 g/ha, read-out: Post-emergence effect against POLCO in %) was 80%, the pest or weed control at 80 g/ha (MATIN; Tripleurospermum inodorum, 504 h, 80 g/ha, read-out: Post-emergence effect against MATIN in %) was 80% and the pest or weed control at 320 g/ha (MATIN; Tripleurospermum inodorum, 504 h, 320 g/ha, read-out: Post-emergence effect against MATIN in %) was 80%. For the same compound, the plant injury at 20 g/ha (ZEAMX; Zea mays, 504 h, read-out: Post-emergence effect at 20 g/ha against ZEAMX in %) was 10%, the pest or weed control at 80 g/ha (ABUTH; Abutilon theophrasti, 504 h, 80 g/ha, read-out: Post-emergence effect against ABUTH) was 90% and the pest or weed control at 320 g/ha (ABUTH; Abutilon theophrasti, 504 h, 320 g/ha, read-out: Post-emergence effect against ABUTH) was 90%. It also gave a pest or weed control at 80 g/ha (KCHSC; 504 h, 80 g/ha, read-out: Post-emergence effect against KCHSC in %) of 80%, a pest or weed control at 320 g/ha (KCHSC; 504 h, 320 g/ha, read-out: Post-emergence effect against KCHSC in %) of 90% and a pest or weed control at 80 g/ha (SETVI; Setaria viridis, 504 h, 80 g/ha, read-out: Post-emergence effect against SETVI in %) of 80%. It also gave a pest or weed control at 320 g/ha (SETVI; Setaria viridis, 504 h, 320 g/ha, read-out: Post-emergence effect against SETVI in %) of 90%.
